Reference: paper PMC2964380 (Bioorganic & medicinal chemistry, 2010)
Like-named read-outs stand apart in the source and are kept apart here.

Legend:
[1] = tested on: HIV-1 (IIIB); assay: Inhibition of HIV-1; assay type: cell-based; details: Human immunodeficiency virus 1, IIIB, MT2, 120 h, read-out: Cell-Culture EC50
[2] = tested on: HIV-1 (IIIB); details: MT-2 cell culture, MTT assay; cited from earlier work

EC50 [1] | Structure (SMILES) | EC50 [2]
42 nM | COc1ccc(OC)c(CCNC(=S)Nc2ccc(Br)cn2)c1 [HI-236] | –
– | Cc1cn([C@H]2C=C[C@@H](CO)O2)c(=O)[nH]c1=O [d4T] | 2000 nM
